Several values for one entry are separate records, joined by “and”; a condition that tells them apart may be missing. Equal entries are not always repeated. Inconclusive results and toxic doses are left out.
Tested on: CD2F1 mice, L1210 leukemia ip, survival T/C
Test: NCI In Vivo Anticancer Drug Screen. Data for tumor model L1210 Leukemia (intraperitoneal) in CD2F1 (CDF1) mice
Details: higher = longer survival
Outline: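 Tumor-bearing mice (transplanted tumor) were split into treated and vehicle control groups, and the measured endpoint of each treated group was divided by that of its vehicle controls.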

[1] = endpoint: mean survival time, dose: 100.0 mg/kg/injection, schedule: Q01DX009 (ip), vehicle: saline with Tween-80
[2] = endpoint: mean survival time, dose: 200.0 mg/kg/injection, schedule: Q01DX009 (ip), vehicle: saline with Tween-80
[3] = endpoint: mean survival time, dose: 400.0 mg/kg/injection, schedule: Q01DX009 (ip), vehicle: saline with Tween-80
[4] = endpoint: mean survival time, dose: 12.5 mg/kg/injection, schedule: Q01DX009 (ip), vehicle: saline with Tween-80
[5] = endpoint: mean survival time, dose: 100.0 mg/kg/injection, schedule: Q04DX002 (ip), vehicle: saline with Tween-80
[6] = endpoint: mean survival time, dose: 100.0 mg/kg/injection, schedule: Q04DX003 (ip), vehicle: saline with Tween-80
[7] = endpoint: mean survival time, dose: 200.0 mg/kg/injection, schedule: Q04DX002 (ip), vehicle: saline with Tween-80
[8] = endpoint: mean survival time, dose: 200.0 mg/kg/injection, schedule: Q04DX003 (ip), vehicle: saline with Tween-80
[9] = endpoint: mean survival time, dose: 400.0 mg/kg/injection, schedule: Q04DX002 (ip), vehicle: saline with Tween-80
[10] = endpoint: mean survival time, dose: 400.0 mg/kg/injection, schedule: Q04DX003 (ip), vehicle: saline with Tween-80
[11] = endpoint: mean survival time, dose: 25.0 mg/kg/injection, schedule: Q01DX009 (ip), vehicle: saline with Tween-80
[12] = endpoint: mean survival time, dose: 50.0 mg/kg/injection, schedule: Q01DX009 (ip), vehicle: saline with Tween-80
[13] = endpoint: mean survival time, dose: 6.25 mg/kg/injection, schedule: Q01DX009 (ip), vehicle: saline
[14] = endpoint: mean survival time, dose: 12.5 mg/kg/injection, schedule: Q01DX009 (ip), vehicle: saline
[15] = endpoint: mean survival time, dose: 25.0 mg/kg/injection, schedule: Q01DX009 (ip), vehicle: saline
[16] = endpoint: mean survival time, dose: 25.0 mg/kg/injection, schedule: Q04DX003 (ip), vehicle: saline
[17] = endpoint: mean survival time, dose: 50.0 mg/kg/injection, schedule: Q04DX003 (ip), vehicle: saline
[18] = endpoint: mean survival time, dose: 100.0 mg/kg/injection, schedule: Q04DX003 (ip), vehicle: saline

For `CC1(C)/C(=N/Nc2ccc([N+](=O)[O-])cc2[N+](=O)[O-])C=Cc2ccccc21`, the T/C (endpoint: mean survival time, dose: 12.5 mg/kg/injection, schedule: Q01DX009 (ip), vehicle: other) was 105 % of control, the T/C (endpoint: mean survival time, dose: 25.0 mg/kg/injection, schedule: Q01DX009 (ip), vehicle: other) was 94 % of control and the T/C (endpoint: mean survival time, dose: 100.0 mg/kg/injection, schedule: Q01DX009 (ip), vehicle: other) was 90 % of control. For the same molecule, the T/C (endpoint: mean survival time, dose: 200.0 mg/kg/injection, schedule: Q01DX009 (ip), vehicle: other) was 94 % of control.
`Cc1cc(S(=O)(=O)O)c(N)cc1Cl` was tested, and the T/C [1] was 106 % of control, the T/C [2] was 92 % of control and the T/C [3] was 103 % of control.
With `CN(C)c1ccc(N=Nc2ccc([As](=O)(O)O)cc2)cc1` the T/C (endpoint: mean survival time, dose: 6.25 mg/kg/injection, schedule: Q01DX009 (ip), vehicle: saline with Tween-80) was 91 % of control, the T/C (endpoint: mean survival time, dose: 12.5 mg/kg/injection, schedule: Q01DX001 (ip), vehicle: saline with Tween-80) was 110 % of control and the T/C [4] was 89 % of control.
In the case of `CN(C)C(=O)C1C2CCCC(CC2)C1C(=O)N(C)C` (stereo not drawn), the T/C (endpoint: mean survival time, dose: 100.0 mg/kg/injection, schedule: Q04DX002 (ip), vehicle: saline) is reported as 100 % of control, the T/C (endpoint: mean survival time, dose: 200.0 mg/kg/injection, schedule: Q04DX002 (ip), vehicle: saline) is reported as 91 % of control and the T/C (endpoint: mean survival time, dose: 400.0 mg/kg/injection, schedule: Q04DX002 (ip), vehicle: saline) is reported as 95 % of control.
With `CCOC(=O)c1ccc(NC(=O)Oc2ccc(NC(C)=O)cc2)cc1` the T/C [1] was 95 % of control and 102 % of control, the T/C [5] was 91 % of control and 94 % of control and the T/C [6] was 89 % of control. For the same molecule, the T/C [2] was 96 % of control and 100 % of control, the T/C [7] was 94 % of control and 105 % of control and the T/C [8] was 86 % of control. The T/C [3] was 92 % of control and 96 % of control, the T/C [9] was 92 % of control and the T/C [10] was 86 % of control.
In the case of `Nc1c2c(nn1-c1ccccc1)C(=O)N(CCc1ccccc1)C2`, the T/C [10] is reported as 90 % of control.
For `COc1cc(Cl)ccc1NC(=O)Nc1cccc(C(=O)O)c1`, the T/C [4] was 97 % of control, the T/C [11] was 90 % of control and the T/C [12] was 90 % of control. The T/C [1] was 96 % of control and the T/C [2] was 90 % of control.
For `CC(=O)O.CC(=O)O.CC(=O)O.CC(=O)O.[Rh].[Rh]`, the T/C [13] was 110 % of control, the T/C [14] was 116 % of control and the T/C [15] was 100 % of control.
For `CN(C)c1ccc(NC(=S)Nc2ccc(N(C)C)cc2)cc1`, the T/C (endpoint: mean survival time, dose: 25.0 mg/kg/injection, schedule: Q01DX001 (ip), vehicle: saline with Tween-80) was 97 % of control, the T/C (endpoint: mean survival time, dose: 50.0 mg/kg/injection, schedule: Q01DX001 (ip), vehicle: saline with Tween-80) was 102 % of control and the T/C (endpoint: mean survival time, dose: 100.0 mg/kg/injection, schedule: Q01DX001 (ip), vehicle: saline with Tween-80) was 94 % of control.
For `CCCN1CCc2cc3c(cc2C1)OCO3`, the T/C (endpoint: mean survival time, dose: 100.0 mg/kg/injection, schedule: Q01DX001 (ip), vehicle: saline) was 100 % of control.
For `[Cl][Pt]([Cl])([Cl])[Cl]`, the T/C (endpoint: mean survival time, dose: 3.13 mg/kg/injection, schedule: Q01DX009 (ip), vehicle: saline) was 100 % of control, the T/C (endpoint: mean survival time, dose: 3.13 mg/kg/injection, schedule: Q01DX009 (ip), vehicle: suspension in saline) was 101 % of control and the T/C [13] was 113 % of control. The T/C (endpoint: mean survival time, dose: 6.25 mg/kg/injection, schedule: Q01DX009 (ip), vehicle: suspension in saline) was 107 % of control, the T/C [14] was 121 % of control and the T/C (endpoint: mean survival time, dose: 12.5 mg/kg/injection, schedule: Q01DX009 (ip), vehicle: suspension in saline) was 121 % of control. For the same molecule, the T/C [15] was 113 % of control and 102 % of control, the T/C (endpoint: mean survival time, dose: 25.0 mg/kg/injection, schedule: Q01DX009 (ip), vehicle: suspension in saline) was 124 % of control and the T/C [16] was 108 % of control and 107 % of control. The T/C [17] was 97 % of control and 105 % of control.
With `c1ccc([P+](c2ccccc2)(c2ccccc2)C2CCC2)cc1` the T/C (endpoint: mean survival time, dose: 9.4 mg/kg/injection, schedule: Q04DX003 (ip), vehicle: saline) was 97 % of control, the T/C (endpoint: mean survival time, dose: 18.8 mg/kg/injection, schedule: Q04DX003 (ip), vehicle: saline) was 102 % of control and the T/C (endpoint: mean survival time, dose: 37.5 mg/kg/injection, schedule: Q04DX003 (ip), vehicle: saline) was 102 % of control.
In the case of `Cc1cc(C)c(C)c(C(O)(C(=O)O)c2ccccc2)c1` (stereo not drawn), the T/C [1] is reported as 100 % of control, the T/C [6] is reported as 97 % of control and the T/C [2] is reported as 88 % of control. For the same molecule, the T/C [8] was 101 % of control, the T/C [3] was 96 % of control and the T/C [10] was 92 % of control.
In the case of `Cc1ccc(-c2cc(O)cc(-c3ccc(C)cc3C)c2O)c(C)c1`, the T/C (endpoint: mean survival time, dose: 400.0 mg/kg/injection, schedule: Q01DX001 (ip), vehicle: saline with Tween-80) is reported as 91 % of control.
`CC1(C)N=C(N)N=C(N)N1c1ccc(OCCCOc2ccc(S(=O)(=O)F)cc2)c(Cl)c1` was tested, and the T/C [13] was 104 % of control, the T/C [14] was 98 % of control and the T/C [15] was 104 % of control.
`COC(=O)c1cccc(I)c1` was tested, and the T/C [5] was 100 % of control, the T/C [7] was 100 % of control and the T/C [9] was 96 % of control.
For `O=C(O)c1ccccc1C(=O)c1ccc(CBr)cc1`, the T/C (endpoint: mean survival time, dose: 6.25 mg/kg/injection, schedule: Q04DX003 (ip), vehicle: saline with Tween-80) was 93 % of control, the T/C (endpoint: mean survival time, dose: 12.5 mg/kg/injection, schedule: Q04DX003 (ip), vehicle: saline with Tween-80) was 101 % of control and the T/C (endpoint: mean survival time, dose: 25.0 mg/kg/injection, schedule: Q04DX003 (ip), vehicle: saline with Tween-80) was 101 % of control.
`COc1cc(OC)c(OC)cc1/C=C\c1ccc2ccccc2[n+]1C` was tested, and the T/C [4] was 100 % of control, the T/C [11] was 91 % of control and the T/C [6] was 104 % of control.
With `O=C1CC2c3[nH]c4ccccc4c3CCN2C2=C1CCCC2` (stereo not drawn) the T/C [6] was 100 % of control and the T/C [8] was 103 % of control.
In the case of `COc1cc(C2c3cc4c(cc3[C@@H](OC3OC5CO[C@@H](C)OC5C(O)C3O)[C@H]3COC(=O)C23)OCO4)cc(OC)c1OC` (stereo partly drawn), the T/C (endpoint: median survival time, dose: 50.0 mg/kg/injection, schedule: Q01DX005 (ip), vehicle: saline) is reported as 164 % of control, the T/C (endpoint: median survival time, dose: 60.0 mg/kg/injection, schedule: Q01DX009 (ip), vehicle: saline) is reported as 161 % of control and the T/C (endpoint: median survival time, dose: 100.0 mg/kg/injection, schedule: Q01DX005 (ip), vehicle: saline) is reported as 211 % of control. For the same molecule, the T/C (endpoint: median survival time, dose: 100.0 mg/kg/injection, schedule: Q01DX009 (ip), vehicle: saline) was 277 % of control, the T/C (endpoint: median survival time, dose: 166.67 mg/kg/injection, schedule: Q01DX009 (ip), vehicle: saline) was 297 % of control and the T/C (endpoint: median survival time, dose: 200.0 mg/kg/injection, schedule: Q01DX005 (ip), vehicle: saline) was 211 % of control. For the same molecule, the T/C (endpoint: median survival time, dose: 277.78 mg/kg/injection, schedule: Q01DX009 (ip), vehicle: saline) was 86 % of control.
`C(=N\Nc1nc2ccccc2o1)/c1ccncc1` was tested, and the T/C (endpoint: mean survival time, dose: 100.0 mg/kg/injection, schedule: Q04DX003 (ip), vehicle: Klucel (hydroxypropylcellulose) (HPC)) was 103 % of control, the T/C (endpoint: mean survival time, dose: 200.0 mg/kg/injection, schedule: Q04DX003 (ip), vehicle: Klucel (hydroxypropylcellulose) (HPC)) was 95 % of control and the T/C (endpoint: mean survival time, dose: 400.0 mg/kg/injection, schedule: Q04DX003 (ip), vehicle: Klucel (hydroxypropylcellulose) (HPC)) was 101 % of control.
For `NC(N)=N/C(N)=N\c1cnc([N+](=O)[O-])s1`, the T/C (endpoint: mean survival time, dose: 75.0 mg/kg/injection, schedule: Q01DX001 (ip), vehicle: saline) was 96 % of control, the T/C (endpoint: mean survival time, dose: 150.0 mg/kg/injection, schedule: Q01DX001 (ip), vehicle: saline) was 101 % of control and the T/C (endpoint: mean survival time, dose: 300.0 mg/kg/injection, schedule: Q01DX001 (ip), vehicle: saline) was 93 % of control.
`Clc1c(Cl)c(Cl)[c]([Hg][c]2c(Cl)c(Cl)c(Cl)c(Cl)c2Cl)c(Cl)c1Cl` was tested, and the T/C [11] was 100 % of control, the T/C [16] was 103 % of control and the T/C [12] was 103 % of control. For the same molecule, the T/C [17] was 97 % of control, the T/C [1] was 97 % of control and the T/C [6] was 96 % of control. The T/C [18] was 97 % of control.
For `COc1ccc2c(c1OC(C)=O)-c1cc(OC(C)=O)cc3c1C(C2)N(C(=O)CCl)CC3` (stereo not drawn), the T/C (endpoint: mean survival time, dose: 25.0 mg/kg/injection, schedule: Q04DX003 (ip), vehicle: DMSO) was 101 % of control, the T/C (endpoint: mean survival time, dose: 50.0 mg/kg/injection, schedule: Q04DX003 (ip), vehicle: DMSO) was 96 % of control and the T/C (endpoint: mean survival time, dose: 100.0 mg/kg/injection, schedule: Q04DX003 (ip), vehicle: DMSO) was 101 % of control.
With `CCOCCNc1ccc([N+](=O)[O-])cc1[N+](=O)[O-]` the T/C [5] was 91 % of control, the T/C [7] was 91 % of control and the T/C [9] was 98 % of control.
`CC12CCc3c(ccc4cc(O)ccc34)C1CCC2=O` (stereo not drawn) was tested, and the T/C [18] was 100 % of control, the T/C (endpoint: mean survival time, dose: 200.0 mg/kg/injection, schedule: Q04DX003 (ip), vehicle: saline) was 97 % of control and the T/C (endpoint: mean survival time, dose: 400.0 mg/kg/injection, schedule: Q04DX003 (ip), vehicle: saline) was 97 % of control.

Source: PubChem BioAssay AID256 (DTP/NCI, 2004)
